± gives the expanded uncertainty stated by the source.
Test: mn = molality of the nth substance listed, in mol/kg
Conditions: 101 kPa, Liquid, fixed-path interferometer

O=C(O)CC(O)(CC(=O)O)C(=O)O [citric acid] + O
speed of sound [m/s]
Conditions | 288.15 K | 293.15 K | 298.15 K | 303.15 K | 308.15 K | 313.15 K | 318.15 K | 323.15 K
m1 = 0.1003 | 1469.9 ± 1.1 | 1485.9 ± 1.1 | 1499.4 ± 1.1 | 1510.9 ± 1.1 | 1521 ± 1.1 | 1529.8 ± 1.1 | 1537.2 ± 1.1 | 1542.6 ± 1.1
m1 = 0.2504 | 1477.4 ± 1.1 | 1492.5 ± 1.1 | 1505.5 ± 1.1 | 1516.2 ± 1.1 | 1525.8 ± 1.1 | 1533.9 ± 1.1 | 1540.5 ± 1.1 | 1545.9 ± 1.1
m1 = 0.5006 | 1490.5 ± 1.1 | 1504 ± 1.1 | 1516.1 ± 1.1 | 1525.7 ± 1.1 | 1533.9 ± 1.1 | 1541.2 ± 1.1 | 1546.1 ± 1.1 | 1550.7 ± 1.1
m1 = 0.9988 | 1515 ± 1.1 | 1526.4 ± 1.1 | 1535.8 ± 1.1 | 1543.3 ± 1.1 | 1549.4 ± 1.1 | 1554.9 ± 1.1 | 1558.2 ± 1.1 | 1561.1 ± 1.1
m1 = 1.502 | 1538 ± 1.2 | 1547.1 ± 1.2 | 1554.4 ± 1.2 | 1560.8 ± 1.2 | 1565.6 ± 1.2 | 1569.5 ± 1.2 | 1572 ± 1.2 | 1573.3 ± 1.2
m1 = 2.023 | 1560.3 ± 1.2 | 1567.1 ± 1.2 | 1572.5 ± 1.2 | 1576.7 ± 1.2 | 1579.8 ± 1.2 | 1582.2 ± 1.2 | 1583.7 ± 1.2 | 1582.6 ± 1.2
m1 = 2.502 | 1578.8 ± 1.2 | 1584.1 ± 1.2 | 1587.9 ± 1.2 | 1590.5 ± 1.2 | 1592.4 ± 1.2 | 1593.7 ± 1.2 | 1593.9 ± 1.2 | 1592.9 ± 1.2
m1 = 3.006 | 1595.4 ± 1.2 | 1598.9 ± 1.2 | 1603 ± 1.2 | 1603 ± 1.2 | 1603.6 ± 1.2 | 1603.8 ± 1.2 | 1599.9 ± 1.2 | 1598.2 ± 1.2
m1 = 3.505 | 1613.1 ± 1.2 | 1615.3 ± 1.2 | 1616.7 ± 1.2 | 1615.6 ± 1.2 | 1615.2 ± 1.2 | 1614.2 ± 1.2 | 1612.6 ± 1.2 | 1609.7 ± 1.2
m1 = 3.998 | 1626.2 ± 1.2 | 1628.7 ± 1.2 | 1629.1 ± 1.2 | 1626.7 ± 1.2 | 1622.6 ± 1.2 | 1621 ± 1.2 | 1618.9 ± 1.2 | 1615.4 ± 1.2
m1 = 4.506 | 1640.7 ± 1.2 | 1636.7 ± 1.2 | 1641 ± 1.2 | 1637.8 ± 1.2 | 1635.5 ± 1.2 | 1632.7 ± 1.2 | 1629.6 ± 1.2 | 1625.3 ± 1.2
m1 = 4.997 | 1654.7 ± 1.3 | 1653.3 ± 1.3 | 1651.3 ± 1.3 | 1648.6 ± 1.3 | 1640.1 ± 1.3 | 1635.7 ± 1.3 | 1632.1 ± 1.3 | 1626.1 ± 1.3

Source: the NIST ThermoML archive (doi:10.1016/j.jct.2013.04.017)
